Laboratory results reported in patent US6734168B2, “Endothelial monocyte activating polypeptide II: a mediator which activates host response” (The Trustees of Columbia University in the City of New York, priority 1993, dated 2004).
pEC50: −log10 of the molar value.

Legend:
[1] = tested on: human PMNs; assay: Release of peroxidase generating activity (myeloperoxidase) from PMNs; format: cell-based; details: 60 min at 37° C.
Description: Release of peroxidase generating activity from PMNs (myeloperoxidase) was determined by oxidation of the peroxidase substrate 3,3′,5,5′-tetramethylbenzidine (TMB; Sigma), monitored at 620 nm, as described (35). In brief, PMNs (3×10^6 cells/ml; 0.05 ml) were incubated for 60 min at 37° C. with RPMI 1640 containing fetal calf serum (1%) alone or in the presence of phorbol ester (phorbol 12-myristate 13-acetate; Sigma) or EMAP II-derived peptides. TMP and hydrogen peroxide were added for 1 min at room temperature, and the reaction was stopped with sodium azide and acetic acid. Peroxidase activity, assessed by oxidation of TMB, was determined spectrophotometrically and is reported as percent total peroxidase activity (100% is the activity observed with that number of PMNs following 60 min exposure to phorbol ester, 10 μM). A standard curve was generated by assaying peroxidase activity from different numbers of PMNs treated with phorbol ester (10 μM) under these conditions, and peroxidase activity of PMN/EMAP II peptide incubation mixtures was determined by comparison with the linear portion of the standard curve (35).
Release of Peroxidase Generating Activity from PMNs (myeloperoxidase)—Release was determined by a previously described assay (36) which monitors oxidation of the substrate 3,3′,5,5′-tetramethylbenzidine (TMB; Sigma). […]

[2] = tested on: human PMNs; assay: PMN migration in microchemotaxis chambers; format: cell-based; design: key to PMN MIGRATION: (+) indicates the peptide induced PMN migration; (−) indicates the peptide did not induce PMN migration above levels seen in controls which contained no chemotactic stimulus
Description: Assessment of mononuclear phagocyte (mononuclears) and polymorphonuclear leukocyte (PMN) migration. Human peripheral blood monocytes were isolated from the blood of normal healthy volunteers (30). Blood was centrifuged on Hisopaque 1077 (Sigma, St. Louis, Mo.), the mononuclear fraction was obtained, washed twice in Earle's balanced salt solution, resuspended in RPMI 1640 containing human serum (10%; Gemini, Calabasas, Calif.), plated on tissue culture dishes and incubated at 37° C. for 1-2 hrs. Nonadherent cells were removed by washing the plate twice with balanced salt solution, and adherent cells were harvested by incubation with calcium-magnesium free buffer containing EDTA (2 mM) for 15 min at 37° C., followed by extensive washing. PMNs were prepared by centrifugation over Hisopaque 1119 as per the manufacturer's protocol (Sigma). Chemotaxis assays were performed in microchemotaxis chamber (NeuroProbe, Bethesda, Md.) containing Nucleopore polycarbonate membranes (5 μm; Nucleopore, Pleasonton, Calif.). Mononuclears or PMNs were suspended in RPMI 1640 containing fetal bovine serum (1%) and 10^4 cells were added per well to the upper chamber. The chemotactic stimulus was added to the indicated chamber, and assays were performed in quadruplicate over a 3 hr or 45 min incubation period at 37° C., with mononuclear cells or PMNs, respectively, after which non-migrating cells were removed, membranes were fixed in methanol, migrating cells were visualized with Wright's stain. Cells in nine high-power fields were counted, and the mean and standard error of the mean (SEM) were determined.
Cell migration was studied by adding MPs or PMNs (10^4 cells/well) resuspended in RPMI 1640 with fetal calf serum (1%; Gemini) to the upper wells of a microchemotaxis chamber (Neuro Probe, Bethesda, Md.) containing Nucleopore polycarbonate membranes (5 μm, Nucleopore, Pleasanton Calif.), as described (7,29-30). The chemotactic stimulus was placed in the upper or lower chamber, as indicated, and cells were allowed to migrate for 3 hrs (for MPs) or 45 min (for PMNs) at 37° C. Following removal of non-migrating cells, membranes were fixed in methanol and migrating cells were visualized with Wright's stain. Assays were performed in quadruplicate, and cells were counted in nine high-power fields in each case (mean±SEM is shown in the figures).
Migration of PMNs and MPs—Migration was studied using cells (10^4 and 10^3 cells/well form PMNs and MPs, respectively) resuspended in RPMI 1640 with fetal calf serum (1%) added to the upper wells of a microchemotaxis chamber (Neuro Probe, Bethesda, Md.) containing Nucleopore polycarbonate membranes (5 um, Nucleopor, Pleasanton, Calif.), as described (13, 22, 35). The stimulus was placed in the upper or lower chamber, as indicated, and the cells were allowed to migrate for 3 h (for MPs) or 45 min (for PMNs) at 37° C. Following removal of nonmigrating cells, membranes were fixed in methanol, and migrating cells were visualized with Wright's stain. Assays were performed in quadruplicate, and cells were counted in […] high-power fields in each case (mean±S.E. is shown in the figures).

“ASRLDLRIGRIVTAKY [residues #6-20 from EMAP II, Cys to Arg substitution at position #15, and a C-terminal Tyr]” was tested, and the “Release of PMN myeloperoxidase activity (peroxidase generation assay)” value [1] was “released PMN myeloperoxidase activity”, the “Dose above which PMN migration reached an apparent maximum” value ([2]; data not shown) was greater than 1 nM and the pEC50 ([2]; four experiments, PMNs from three individuals, read-out: Peptide concentration for half-maximal PMN migration) was 9.52 to 9.82. The “Induction of PMN migration (chemotaxis)” value ([2]; microchemotaxis chamber, 45 min at 37° C.) was “led to induction of migration”, the “PMN migration at 100 pM peptide relative to fMLP at 1 μM” value ([2]; peptide 100 pM) was “roughly comparable” and the “Concentration range over which effect on PMN migration was dose-dependent” value ([2]; peptide added to the lower well) was 10 to 10000 pM. For the same sequence, the “PMN MIGRATION” value ([2]; peptides 100 pM in each case) was “+”.
